{"source": "patent US10487054B2", "about": "“Therapeutic compounds” (REGENTS OF THE UNIVERSITY OF MINNESOTA, priority 2017, dated 2019)", "key": {"HaCaT cells": {"test_system": "HaCaT cells", "test": "Western blot of SUV-induced TOPK downstream signaling", "format": "cell-based, human", "procedure": "The cells were cultured, treated for 4 h with different concentrations of compound 1 and then exposed to SUV (60 kJ UVA/m^2 and 2.9 kJ UVB/m^2), followed by an additional 15-minute incubation. Cells were harvested and the levels of phosphorylated and total proteins were determined by Western blot analysis with specific antibodies as indicated. […] The cells were cultured and treated with different concentrations of compound 1 for 24 h. Cells were harvested and the levels of phosphorylated and total proteins were determined by Western blot analysis with specific antibodies as indicated. […] For the luciferase assay, JB6 P+ cells stably transfected with an AP-1 luciferase reporter plasmid were cultured. After starvation for 24 h, cells were treated for 1 h with compound 1 (0, 1.25, 2.5, or 5 μM). Cells were then exposed to SUV (60 kJ UVA/m^2 and 2.9 kJ UVB/m^2) and harvested 3 h later. Luciferase activity was measured and AP-1 activity is expressed relative to control cells without SUV treatment. […] Knockdown of TOPK in A431 cell line (left). Stable control or TOPK knockdown cells were co-transfected with 100 ng of the AP-1 luciferase reporter plasmid and 50 ng of internal control […] plasmid. Cells were transfected using iMFectin poly DNA transfection reagent (GenDEPOT) according to the manufacturer's instructions. After 12 h of transfection, cells were incubated with the different concentrations of compound 1 for another 24 h. Luciferase and […] activities were measured using reagents included in the reporter assay system (right). Data are shown as mean values±S.D obtained from triplicate experiments. Significant differences were evaluated using one-way ANOVA and the asterisks (*) indicate a significant effect (*, p<0.05; **, p<0.001; ***, p<0.0001). […]\nHaCaT or JB6 P+ cells (1×10^6) were cultured in 10-cm dishes for 24 h and then the medium was replaced with 0.1% FBS medium for 24 h. […] Protein concentration in cell lysates was determined using a protein assay kit (Bio-Rad Laboratories, Hercules, Calif.). […]"}, "JB6 P+ cells": {"test_system": "JB6 P+ cells", "test": "Anchorage-independent cell growth assay (EGF-induced neoplastic transformation)", "format": "cell-based, mouse", "settings": "EGF 10 ng/ml, different concentrations", "procedure": "Cells were exposed to EGF (10 ng/ml) and treated with increasing concentrations of compound 1. Representative photographs are shown and data are presented as mean values±S.D. from triplicate experiments. […] Cells were treated with different concentrations of compound 1 for several days and cell proliferation was determined by a crystal violet staining assay.\nCells (8×10^3/well) were seeded into 6-well plates with 0.3% Basal Medium Eagle agar containing 10% FBS with epidermal growth factor (EGF, 10 ng/ml) and different concentrations of compound 1 and then cultured for 1 to 2 weeks. Colonies were scored under a microscope using the Image-Pro PLUS (v6.) computer software program (Media Cybernetics. Rockville, Md.)."}, "SCC12 cells": {"test_system": "SCC12 cells", "test": "Western blot of TOPK downstream signaling", "format": "cell-based, human", "procedure": "(§1) The cells were cultured, treated for 4 h with different concentrations of compound 1 and then exposed to SUV (60 kJ UVA/m^2 and 2.9 kJ UVB/m^2), followed by an additional 15-minute incubation. Cells were harvested and the levels of phosphorylated and total proteins were determined by Western blot analysis with specific antibodies as indicated. […] The cells were cultured and treated with different concentrations of compound 1 for 24 h. Cells were harvested and the levels of phosphorylated and total proteins were determined by Western blot analysis with specific antibodies as indicated. […] For the luciferase assay, JB6 P+ cells stably transfected with an AP-1 luciferase reporter plasmid were cultured. After starvation for 24 h, cells were treated for 1 h with compound 1 (0, 1.25, 2.5, or 5 μM). Cells were then exposed to SUV (60 kJ UVA/m^2 and 2.9 kJ UVB/m^2) and harvested 3 h later. Luciferase activity was measured and AP-1 activity is expressed relative to control cells without SUV treatment. […] Knockdown of TOPK in A431 cell line (left). Stable control or TOPK knockdown cells were co-transfected with 100 ng of the AP-1 luciferase reporter plasmid and 50 ng of internal control […] plasmid. Cells were transfected using iMFectin poly DNA transfection reagent (GenDEPOT) according to the manufacturer's instructions. After 12 h of transfection, cells were incubated with the different concentrations of compound 1 for another 24 h. Luciferase and […] activities were measured using reagents included in the reporter assay system (right). Data are shown as mean values±S.D obtained from triplicate experiments. Significant differences were evaluated using one-way ANOVA and the asterisks (*) indicate a significant effect (*, p<0.05; **, p<0.001; ***, p<0.0001).\n(§2) HaCaT or JB6 P+ cells (1×10^6) were cultured in 10-cm dishes for 24 h and then the medium was replaced with 0.1% FBS medium for 24 h. Cells were then treated with different concentrations of compound 1 for 4 h followed by exposure to SUV (60 kJ UVA/m^2 and 2.9 kJ UVB/m^2). After SUV, cells were incubated for 15 min at 37° C. in a 5% CO2 humidified incubator. SCC12 and A431 cells (1.5×10^6) were cultured in 10-cm dishes overnight and then starved for 24 h. Cells were then treated with different concentrations of compound 1 for an additional 24 h. Protein concentration in cell lysates was determined using a protein assay kit (Bio-Rad Laboratories, Hercules, Calif.). Equal amounts of proteins were resolved by SDS-PAGE and then transferred onto polyvinylidene difluoride (PVDF) membranes (EMD Millipore Corp., Billerica, Mass.) and membranes were blocked with 5% nonfat milk for 1 h at room temperature. […]"}, "A431 cells": {"test_system": "A431 cells", "test": "Western blot of TOPK downstream signaling", "format": "cell-based, human", "procedure": "as §1, §2"}}, "data": [{"compound": "O=C1Nc2ccc(C34CC5CC(CC(C5)C3)C4)cc2C1=NO", "note": "[compound 1, 5-(adamantan-1-yl)-3-(hydroxyimino)indolin-2-one]", "values": [{"measurement": "phosphorylated c-Jun protein levels", "setting": "HaCaT cells; HaCaT cells exposed to SUV", "result": "significantly suppressed"}, {"measurement": "phosphorylation of ERK1/2, p38, and JNKs", "setting": "HaCaT cells; HaCaT cells, 4 h treatment then SUV (60 kJ UVA/m2 and 2.9 kJ UVB/m2)", "result": "markedly suppressed"}, {"measurement": "phosphorylated and total TOPK protein levels", "setting": "HaCaT cells; Western blot, cell lines not specified in the sentence (FIG. 3A, 3B)", "result": "no significant changes"}, {"measurement": "EGF-induced colony formation", "setting": "JB6 P+ cells", "result": "attenuated"}, {"measurement": "phosphorylated c-Jun protein levels", "setting": "SCC12 cells", "result": "blocked dose-dependently"}, {"measurement": "phosphorylation of ERK1/2, p38, and JNKs", "setting": "SCC12 cells; 24 h, dose-dependently", "result": "blocked"}, {"measurement": "phosphorylated c-Jun protein levels", "setting": "A431 cells", "result": "blocked dose-dependently"}, {"measurement": "phosphorylation of ERK1/2, p38, and JNKs", "setting": "A431 cells; 24 h, dose-dependently", "result": "blocked"}]}]}
